The test concerns recombinant NL4-3 virus (Renilla luciferase in nef, Gag P373S; NLRluc) in MT-2 cells. The test can be described thus: whole plant or invertebrate. Format: cell-based, HIV. Conditions: Renilla, NL43, luciferase activity in cells infected for 4-5 days with NLRluc recombinants, serial dilutions of inhibitor, read-out: EC50. On the procedure: MT-2 cells and 293T cells were obtained from the NIH AIDS Research and Reference Reagent Program. MT-2 cells were propagated in RPMI 1640 media supplemented with 10% heat inactivated fetal bovine serum, […]. The 293T cells were propagated in DMEM media supplemented with 10% heat inactivated fetal bovine serum (FBS), 100 units/ml penicillin G and 100 μg/ml streptomycin. The proviral DNA clone of NL4-3 was obtained from the NIH AIDS Research and Reference Reagent Program. A recombinant NL4-3 virus, in which a section of the nef gene from NL4-3 was replaced with the Renilla luciferase gene, was used as a reference virus. In addition, residue Gag P373 was converted to P373S. Briefly, the recombinant virus was prepared by transfection of the altered proviral clone of NL4-3. Transfections were performed in 293T cells using LipofectAMINE PLUS from Invitrogen (Carlsbad, Calif.), according to manufacturer's instruction. The virus was titered in MT-2 cells using luciferase enzyme activity as a marker. Luciferase was quantitated using the Dual Luciferase kit from Promega (Madison, Wis.), with modifications to the manufacturer's protocol. The diluted Passive Lysis solution was pre-mixed with the re-suspended Luciferase Assay Reagent and the re-suspended Stop & Glo Substrate (2:1:1 ratio). Fifty (50) μL of the mixture was added to each aspirated well on assay plates and luciferase activity was measured immediately on a Wallac TriLux (Perkin-Elmer). Antiviral activities of inhibitors toward the recombinant virus were quantified by measuring luciferase activity in cells infected for 4-5 days with NLRluc recombinants in the presence serial dilutions of the inhibitor. Table 1 is the key for the data in Table 2.

Like-named read-outs stand apart in the source and are kept apart here. Bounds are passed on as bounds.

For `C=C(C)[C@@H]1CC[C@]2(NC(=O)NCCCN3CCCC3=O)CC[C@]3(C)[C@H](CC[C@@H]4[C@@]5(C)CC=C(c6ccc(C(=O)O)cc6)C(C)(C)[C@@H]5CC[C@]43C)[C@@H]12` [Example 29, 4-((1R,3aS,5aR,5bR,7aR,11aS,11bR,13aR,13bR)-5a,5b,8,8,11a-pentamethyl-3a-(3-(3-(2-oxopyrrolidin-1-yl)propyl)ureido)-1-(prop-1-en-2-yl)-2,3,3a,4,5,5a,5b,6,7,7a,8,11,11a,11b,12,13,13a,13b-octadecahydro-1H-cyclopenta[a]chrysen-9-yl)benzoic acid], under “numeric values”, the EC50 amounted to 10 nM. On to `C=C(C)[C@@H]1CC[C@]2(NCCO)CC[C@]3(C)[C@H](CC[C@@H]4[C@@]5(C)CC=C(c6ccc(C(=O)O)cc6)C(C)(C)[C@@H]5CC[C@]43C)[C@@H]12` [Example 151, 4-((1R,3aS,5aR,5bR,7aR,11aS,11bR,13aR,13bR)-3a-(2-hydroxyethylamino)-5a,5b,8,8,11a-pentamethyl-1-(prop-1-en-2-yl)-2,3,3a,4,5,5a,5b,6,7,7a,8,11,11a,11b,12,13,13a,13b-octadecahydro-1H-cyclopenta[a]chrysen-9-yl)benzoic acid], for which, for the setting “class symbols (key in Table 1)”, the EC50 was less than 100 nM. Regarding `C=C(C)[C@@H]1CC[C@]2(NCCN3CCN(S(=O)(=O)CS(C)(=O)=O)CC3)CC[C@]3(C)[C@H](CC[C@@H]4[C@@]5(C)CC=C(c6ccc(C(=O)O)cc6)C(C)(C)[C@@H]5CC[C@]43C)[C@@H]12` [Example B42, 4-((1R,3aS,5aR,5bR,7aR,11aS,11bR,13aR,13bR)-5a,5b,8,8,11a-pentamethyl-3a-((2-(4-(((methylsulfonyl)methyl)sulfonyl)piperazin-1-yl)ethyl)amino)-1-(prop-1-en-2-yl)-2,3,3a,4,5,5a,5b,6,7,7a,8,11,11a,11b,12,13,13a,13b-octadecahydro-1H-cyclopenta[a]chrysen-9-yl)benzoic acid], the half-maximal effective concentration (EC50) (class symbols (key in Table 1)) was less than 100 nM. On the same count and under the same terms, the value for `C=C(C)[C@@H]1CC[C@]2(NC(=O)CN3CCOCC3)CC[C@]3(C)[C@H](CC[C@@H]4[C@@]5(C)CC=C(c6ccc(C(=O)O)cc6)C(C)(C)[C@@H]5CC[C@]43C)[C@@H]12` [Example 97, 4-((1R,3aS,5aR,5bR,7aR,11aS,11bR,13aR,13bR)-5a,5b,8,8,11a-pentamethyl-3a-(2-morpholinoacetamido)-1-(prop-1-en-2-yl)-2,3,3a,4,5,5a,5b,6,7,7a,8,11,11a,11b,12,13,13a,13b-octadecahydro-1H-cyclopenta[a]chrysen-9-yl)benzoic acid] was less than 100 nM; that for `C=C(C)[C@@H]1CC[C@]2(Nc3nc(C(C)(C)C)cs3)CC[C@]3(C)[C@H](CC[C@@H]4[C@@]5(C)CC=C(c6ccc(C(=O)O)cc6)C(C)(C)[C@@H]5CC[C@]43C)[C@@H]12` [Example 185, 4-((1R,3aS,5aR,5bR,7aR,11aS,11bR,13aR,13bR)-3a-(4-tert-butylthiazol-2-ylamino)-5a,5b,8,8,11a-pentamethyl-1-(prop-1-en-2-yl)-2,3,3a,4,5,5a,5b,6,7,7a,8,11,11a,11b,12,13,13a,13b-octadecahydro-1H-cyclopenta[a]chrysen-9-yl)benzoic acid] was greater than 100 nM.

For `C=C(C)[C@@H]1CC[C@]2(NC(=O)N3CCCNCC3)CC[C@]3(C)[C@H](CC[C@@H]4[C@@]5(C)CC=C(c6ccc(C(=O)O)cc6)C(C)(C)[C@@H]5CC[C@]43C)[C@@H]12` [Example 55, 4-((1R,3aS,5aR,5bR,7aR,11aS,11bR,13aR,13bR)-3a-(1,4-diazepane-1-carboxamido)-5a,5b,8,8,11a-pentamethyl-1-(prop-1-en-2-yl)-2,3,3a,4,5,5a,5b,6,7,7a,8,11,11a,11b,12,13,13a,13b-octadecahydro-1H-cyclopenta[a]chrysen-9-yl)benzoic acid], where the note is “class symbols (key in Table 1)”, the EC50 is less than 100 nM. Still for that read-out and setting: under `C=C(C)[C@@H]1CC[C@]2(NC(=O)N3CCCN(C(C)=O)CC3)CC[C@]3(C)[C@H](CC[C@@H]4[C@@]5(C)CC=C(c6ccc(C(=O)O)cc6)C(C)(C)[C@@H]5CC[C@]43C)[C@@H]12` [Example 35, 4-((1R,3aS,5aR,5bR,7aR,11aS,11bR,13aR,13bR)-3a-(4-acetyl-1,4-diazepane-1-carboxamido)-5a,5b,8,8,11a-pentamethyl-1-(prop-1-en-2-yl)-2,3,3a,4,5,5a,5b,6,7,7a,8,11,11a,11b,12,13,13a,13b-octadecahydro-1H-cyclopenta[a]chrysen-9-yl)benzoic acid] stands less than 100 nM. The same measure, in the same setting: the value for `C=C(C)[C@@H]1CC[C@]2(NCCN3CCN(C(=O)CC4CCCC4)CC3)CC[C@]3(C)[C@H](CC[C@@H]4[C@@]5(C)CC=C(c6ccc(C(=O)O)cc6)C(C)(C)[C@@H]5CC[C@]43C)[C@@H]12` [Example B56, 4-((1R,3aS,5aR,5bR,7aR,11aS,11bR,13aR,13bR)-3a-((2-(4-(2-cyclopentylacetyl)piperazin-1-yl)ethyl)amino)-5a,5b,8,8,11a-pentamethyl-1-(prop-1-en-2-yl)-2,3,3a,4,5,5a,5b,6,7,7a,8,11,11a,11b,12,13,13a,13b-octadecahydro-1H-cyclopenta[a]chrysen-9-yl)benzoic acid] was less than 100 nM; that for `C=C(C)[C@@H]1CC[C@]2(NCCN3CCN(C(=O)CCC)CC3)CC[C@]3(C)[C@H](CC[C@@H]4[C@@]5(C)CC=C(c6ccc(C(=O)O)cc6)C(C)(C)[C@@H]5CC[C@]43C)[C@@H]12` [Example B61, 4-((1R,3aS,5aR,5bR,7aR,11aS,11bR,13aR,13bR)-3a-((2-(4-butyrylpiperazin-1-yl)ethyl)amino)-5a,5b,8,8,11a-pentamethyl-1-(prop-1-en-2-yl)-2,3,3a,4,5,5a,5b,6,7,7a,8,11,11a,11b,12,13,13a,13b-octadecahydro-1H-cyclopenta[a]chrysen-9-yl)benzoic acid] was less than 100 nM. The same measure, in the same setting: the value for `C=C(C)[C@@H]1CC[C@]2(NCCN3CCCCS3(=O)=O)CC[C@]3(C)[C@H](CC[C@@H]4[C@@]5(C)CC=C(c6ccc(C(=O)O)cc6)C(C)(C)[C@@H]5CC[C@]43C)[C@@H]12` [Example B32, 4-((1R,3aS,5aR,5bR,7aR,11aS,11bR,13aR,13bR)-3a-((2-(1,1-dioxido-1,2-thiazinan-2-yl)ethyl)amino)-5a,5b,8,8,11a-pentamethyl-1-(prop-1-en-2-yl)-2,3,3a,4,5,5a,5b,6,7,7a,8,11,11a,11b,12,13,13a,13b-octadecahydro-1H-cyclopenta[a]chrysen-9-yl)benzoic acid] was less than 100 nM; that for `C=C(C)[C@@H]1CC[C@]2(NC(=O)Cc3nnn[nH]3)CC[C@]3(C)[C@H](CC[C@@H]4[C@@]5(C)CC=C(c6ccc(C(=O)O)cc6)C(C)(C)[C@@H]5CC[C@]43C)[C@@H]12` [Example 77, 4-((1R,3aS,5aR,5bR,7aR,11aS,11bR,13aR,13bR)-3a-(2-(1H-tetrazol-5-yl)acetamido)-5a,5b,8,8,11a-pentamethyl-1-(prop-1-en-2-yl)-2,3,3a,4,5,5a,5b,6,7,7a,8,11,11a,11b,12,13,13a,13b-octadecahydro-1H-cyclopenta[a]chrysen-9-yl)benzoic acid] was less than 100 nM; that for `C=C(C)[C@@H]1CC[C@]2(NC(=O)N3CCCCC3)CC[C@]3(C)[C@H](CC[C@@H]4[C@@]5(C)CC=C(c6ccc(C(=O)O)cc6)C(C)(C)[C@@H]5CC[C@]43C)[C@@H]12` [Example 15, 4-((1R,3aS,5aR,5bR,7aR,11aS,11bR,13aR,13bR)-5a,5b,8,8,11a-pentamethyl-3a-(piperidine-1-carboxamido)-1-(prop-1-en-2-yl)-2,3,3a,4,5,5a,5b,6,7,7a,8,11,11a,11b,12,13,13a,13b-octadecahydro-1H-cyclopenta[a]chrysen-9-yl)benzoic acid] was less than 100 nM. With `C=C(C)[C@@H]1CC[C@]2(NC(=O)CN3C(=O)OCc4ccc(Cl)cc43)CC[C@]3(C)[C@H](CC[C@@H]4[C@@]5(C)CC=C(c6ccc(C(=O)O)cc6)C(C)(C)[C@@H]5CC[C@]43C)[C@@H]12` [Example 104, 4-((1R,3aS,5aR,5bR,7aR,11aS,11bR,13aR,13bR)-3a-(2-(7-chloro-2-oxo-2,4-dihydro-1H-benzo[d][1,3]oxazin-1-yl)acetamido)-5a,5b,8,8,11a-pentamethyl-1-(prop-1-en-2-yl)-2,3,3a,4,5,5a,5b,6,7,7a,8,11,11a,11b,12,13,13a,13b-octadecahydro-1H-cyclopenta[a]chrysen-9-yl)benzoic acid], for the setting “class symbols (key in Table 1)”, the EC50 was less than 100 nM.

Consider `C=C(C)[C@@H]1CC[C@]2(NCCNc3cccnc3)CC[C@]3(C)[C@H](CC[C@@H]4[C@@]5(C)CC=C(c6ccc(C(=O)O)cc6)C(C)(C)[C@@H]5CC[C@]43C)[C@@H]12` [Example 189, 4-((1R,3aS,5aR,5bR,7aR,11aS,11bR,13aR,13bR)-5a,5b,8,8,11a-pentamethyl-1-(prop-1-en-2-yl)-3a-(2-(pyridin-3-ylamino)ethylamino)-2,3,3a,4,5,5a,5b,6,7,7a,8,11,11a,11b,12,13,13a,13b-octadecahydro-1H-cyclopenta[a]chrysen-9-yl)benzoic acid], for which, where the note is “class symbols (key in Table 1)”, the EC50 was less than 100 nM.

In general, EC50 refers to the concentration at which the effect is half-maximal.
